This note sets out measurements from ChEMBL document CHEMBL1201862, “PubChem BioAssay data set” (2004).

Some test systems named below: COLO 205; MDA-MB-435; OVCAR-3; UO-31; SF-268; Malme-3M; HL-60; CAKI-1; DU-145; RXF 393; MDA-MB-231; NCI-H226; SR; K562; A498; IGROV-1; MCF7; MOLT-4; UACC-257; NCI-H522.
Holding throughout (assay): DTP human tumour cell line panel, 48 h

Structures are written as SMILES.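 A five-concentration, 48-hour dose response in 96-well plates underlies each endpoint, interpolated linearly between surrounding concentrations. GI50: concentration for 50% inhibition of growth.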 The source made the active and inactive calls. Rule as the data show it: active = GI50 up to about 1.1 µM and inactive = higher.

Regarding `Nc1ccccc1CCCC(=O)O`, the GI50 with COLO 205, with MDA-MB-435, in the test with OVCAR-3, in the test on UO-31, in the test on SF-268 and in the test on Malme-3M was > 100 µM (inactive) in each case. Also, the GI50 with HL-60 was 45.4 µM (inactive); in the test on CAKI-1 it was > 100 µM (inactive); with DU-145, > 100 µM (inactive); with RXF 393, > 100 µM (inactive); in the test on MDA-MB-231, > 100 µM (inactive); in the test with NCI-H226, > 100 µM (inactive). For the same compound, the GI50 in the test with SR, in the test on K562, in the test on A498, in the test with IGROV-1, in the test with MCF7 and in the test with MOLT-4 was > 100 µM (inactive) throughout. The GI50 with UACC-257 and in the test with NCI-H522 was > 100 µM (inactive) in each case.

For the compound `O=C(CSC1=NCCN1)c1ccccc1`, the GI50 in the test with COLO 205, with MDA-MB-435, in the test on OVCAR-3, in the test with UO-31, in the test on SF-268 and in the test with Malme-3M was > 100 µM (inactive) in each case. Also, the GI50 with HL-60 was < 0.01 µM (active); in the test with CAKI-1, > 100 µM (inactive); in the test on DU-145, > 100 µM (inactive); in the test on RXF 393 it was > 100 µM (inactive); in the test on MDA-MB-231, > 100 µM (inactive); in the test with NCI-H226, > 100 µM (inactive). The GI50 with SR, with K562, with A498, with IGROV-1, in the test on MCF7 and in the test on MOLT-4 was > 100 µM (inactive) in each case. The GI50 in the test with UACC-257 and with NCI-H522 was > 100 µM (inactive) throughout.

Regarding `Oc1c(Br)c(-c2ccccc2)nc2ccccc12`, the GI50 was > 21.7 µM (inactive) in the test with COLO 205; 43.3 µM (inactive) with MDA-MB-435; 50.5 µM (inactive) in the test with OVCAR-3; 4.71 µM (inactive) in the test with UO-31; > 10 µM (inactive) with SF-268; 53.2 µM (inactive) with Malme-3M. The GI50 with HL-60 is 12.2 µM (inactive); in the test with CAKI-1, 6.32 µM (inactive); in the test with DU-145, > 69.5 µM (inactive); in the test with RXF 393, 63.1 µM (inactive); in the test on MDA-MB-231, 2.87 µM (inactive); with NCI-H226 it was 8.47 µM (inactive). The GI50 in the test on SR is 29.8 µM (inactive); with K562, 1.9 µM (inactive); in the test with A498, 5.35 µM (inactive); in the test on IGROV-1, 9.55 µM (inactive); in the test on MCF7, 59.2 µM (inactive); with MOLT-4 it was 8.15 µM (inactive). In addition, the GI50 in the test with UACC-257 was 36.7 µM (inactive); in the test on NCI-H522, > 10 µM (inactive).

Consider `CCOC(=O)C(NC(=O)c1ccccc1)(Nc1ccc(S(=O)(=O)Nc2cc(C)nc(C)n2)cc1)C(F)(F)F` (stereo not given), for which the GI50 in the test on COLO 205, in the test on MDA-MB-435, with OVCAR-3, in the test with UO-31, in the test with SF-268 and with Malme-3M was > 100 µM (inactive) in each case. For the same compound, the GI50 in the test on HL-60, with CAKI-1, with DU-145, with RXF 393, with MDA-MB-231 and in the test on NCI-H226 was > 100 µM (inactive) each time. Further, the GI50 was > 100 µM (inactive) with SR; > 100 µM (inactive) in the test on K562; 14.7 µM (inactive) in the test on A498; > 100 µM (inactive) with IGROV-1; > 100 µM (inactive) with MCF7; > 100 µM (inactive) in the test on MOLT-4. Also, the GI50 with UACC-257 and with NCI-H522 was > 100 µM (inactive) in each case.

With `O=C(O)C(CCc1ccccn1)c1ccccc1` (stereo not given), the GI50 with COLO 205, with MDA-MB-435, in the test on OVCAR-3, with UO-31, with SF-268 and in the test on Malme-3M was > 100 µM (inactive) each time. Further, the GI50 with HL-60 was 1 µM (active); in the test on CAKI-1, > 100 µM (inactive); in the test with DU-145 it was > 100 µM (inactive); in the test with RXF 393, > 100 µM (inactive); with MDA-MB-231, > 100 µM (inactive); in the test on NCI-H226, > 100 µM (inactive). Also, the GI50 with SR, with K562, with A498, in the test with IGROV-1, with MCF7 and with MOLT-4 was > 100 µM (inactive) throughout. Besides, the GI50 with UACC-257 and with NCI-H522 was > 100 µM (inactive) each time.

In the case of `N#Cc1ccccc1NC(=O)C(O)C(O)C(O)C(O)C=O` (stereo not given), the GI50 with COLO 205, with MDA-MB-435, in the test with OVCAR-3, in the test on UO-31, in the test on SF-268 and in the test on Malme-3M was > 100 µM (inactive) in each case. Further, the GI50 with HL-60, with CAKI-1, in the test with DU-145, in the test with RXF 393, in the test on MDA-MB-231 and with NCI-H226 was > 100 µM (inactive) in each case. For the same compound, the GI50 with SR, in the test with K562, in the test on A498, in the test with IGROV-1, in the test with MCF7 and in the test on MOLT-4 was > 100 µM (inactive) throughout. The GI50 in the test on UACC-257 and in the test on NCI-H522 was > 100 µM (inactive) each time.

As for `O=C1OCC/C1=C/c1ccc(/N=N/c2c(O)ccc3ccccc23)cc1`, the GI50 in the test on COLO 205 was 25.1 µM (inactive); in the test with MDA-MB-435, 23.1 µM (inactive); in the test with OVCAR-3, 18.1 µM (inactive); in the test on UO-31, 19.1 µM (inactive); with SF-268, 19.8 µM (inactive); with Malme-3M, 15.6 µM (inactive). Also, the GI50 with HL-60 is 22.6 µM (inactive); in the test on CAKI-1, 19.7 µM (inactive); in the test with DU-145 it was 17.7 µM (inactive); in the test with RXF 393, 19.3 µM (inactive); with MDA-MB-231 it was 50.2 µM (inactive); in the test on NCI-H226, 19.4 µM (inactive). Further, the GI50 with SR was 15.2 µM (inactive); with K562, 28.6 µM (inactive); in the test on A498, 15.1 µM (inactive); in the test on IGROV-1, 25.8 µM (inactive); in the test with MCF7, 24.8 µM (inactive); in the test on MOLT-4 it was 19.5 µM (inactive). Moreover, the GI50 in the test with UACC-257 was 20.7 µM (inactive); in the test on NCI-H522, 22.9 µM (inactive).

Regarding `Cc1ccc(C)c(C(=N)c2ccccc2Cc2ccccc2)c1`, the GI50 with COLO 205 was 26.9 µM (inactive); with MDA-MB-435 it was 17.9 µM (inactive); with OVCAR-3 it was 13.3 µM (inactive); with UO-31 it was 27.3 µM (inactive); in the test on SF-268, 18.6 µM (inactive); in the test on Malme-3M, 13 µM (inactive). Moreover, the GI50 in the test on HL-60 is 18.5 µM (inactive); in the test on CAKI-1, 22.6 µM (inactive); in the test on DU-145, 22.9 µM (inactive); in the test with RXF 393, 20 µM (inactive); with MDA-MB-231 it was 22.8 µM (inactive); with NCI-H226 it was 16.4 µM (inactive). The GI50 is 19.2 µM (inactive) in the test with SR; 17.9 µM (inactive) in the test with K562; 21.7 µM (inactive) with A498; 25.6 µM (inactive) in the test on IGROV-1; 15.7 µM (inactive) with MCF7; 15.1 µM (inactive) with MOLT-4. Also, the GI50 in the test with UACC-257 is 22.9 µM (inactive); in the test with NCI-H522, 13.2 µM (inactive).

Take `CSC(SC)=C1CC(=O)Nc2ccccc2C1=O`: the GI50 with COLO 205 is 58.2 µM (inactive); with MDA-MB-435, 44.8 µM (inactive); in the test on OVCAR-3, 45 µM (inactive); with UO-31, 55.1 µM (inactive); in the test with SF-268, > 100 µM (inactive); with Malme-3M, 37.4 µM (inactive). The GI50 in the test on HL-60 was 27.7 µM (inactive); with CAKI-1 it was 34.1 µM (inactive); with DU-145, 91.6 µM (inactive); in the test on RXF 393, 18.6 µM (inactive); in the test with MDA-MB-231 it was > 100 µM (inactive); with NCI-H226 it was > 100 µM (inactive). Moreover, the GI50 with SR is 27.5 µM (inactive); with K562, 27.7 µM (inactive); in the test with A498, > 100 µM (inactive); with IGROV-1 it was 35.9 µM (inactive); in the test with MCF7, 47.6 µM (inactive); in the test on MOLT-4, 26.1 µM (inactive). In addition, the GI50 in the test with UACC-257 is 23.6 µM (inactive); in the test with NCI-H522 it was 57 µM (inactive).

As for `Nc1ccc(Oc2ccc(C3(c4ccc(Oc5ccc(N)cc5)cc4)C4CC5C6CC7CC5C3C(C7)C6C4)cc2)cc1`, the GI50 is 42.4 µM (inactive) with COLO 205; 19 µM (inactive) in the test on MDA-MB-435; 2.01 µM (inactive) in the test on OVCAR-3; 5.24 µM (inactive) in the test with UO-31; > 53.2 µM (inactive) in the test with SF-268; > 78.3 µM (inactive) with Malme-3M. The GI50 with HL-60 is 14 µM (inactive); in the test with CAKI-1, 39 µM (inactive); in the test with DU-145, 9.04 µM (inactive); with RXF 393, 5.4 µM (inactive); in the test on MDA-MB-231 it was 23.1 µM (inactive); in the test on NCI-H226, > 55.8 µM (inactive). The GI50 is 9.2 µM (inactive) in the test with SR; 16 µM (inactive) with K562; 4.01 µM (inactive) with A498; > 52.1 µM (inactive) with IGROV-1; 7.53 µM (inactive) with MCF7; 6.08 µM (inactive) in the test on MOLT-4. The values for the GI50 with UACC-257 and in the test with NCI-H522 were > 58.6 µM (inactive) and > 81.7 µM (inactive), respectively.

As a reminder, the GI50 is the concentration giving 50% growth inhibition.
